Data from ChEMBL document CHEMBL4665653, “VU6005806/AZN-00016130, an advanced M positive allosteric modulator (PAM) profiled as a potential preclinical development candidate” (Bioorg Med Chem Lett, 2019).
pEC50, pIC50: −log10 of the molar value.

Key:
[1] = Unbound brain-to-plasma concentration ratio in Sprague-Dawley rat at 0.1 to 0.2 mg/kg, iv measured after 0.25 hrs; assay type: ADME, organism-based; conditions: dose 0.1-0.2 mg/kg, read-out: K(p,uu,brain)
[2] = molecular target: Adenosine receptor A2a (Homo sapiens) (UniProt P29274); assay: Displacement of [3H]CGS-21680 from full length recombinant human A2A receptor expressed in HEK293 cells assessed as residual binding level for radioligand at 10 uM measured after 90 mins radiometric scintillation analysis relative to control; assay type: cell-based
Adenosine receptor A2a (Homo sapiens), sequence (P29274 whole entry): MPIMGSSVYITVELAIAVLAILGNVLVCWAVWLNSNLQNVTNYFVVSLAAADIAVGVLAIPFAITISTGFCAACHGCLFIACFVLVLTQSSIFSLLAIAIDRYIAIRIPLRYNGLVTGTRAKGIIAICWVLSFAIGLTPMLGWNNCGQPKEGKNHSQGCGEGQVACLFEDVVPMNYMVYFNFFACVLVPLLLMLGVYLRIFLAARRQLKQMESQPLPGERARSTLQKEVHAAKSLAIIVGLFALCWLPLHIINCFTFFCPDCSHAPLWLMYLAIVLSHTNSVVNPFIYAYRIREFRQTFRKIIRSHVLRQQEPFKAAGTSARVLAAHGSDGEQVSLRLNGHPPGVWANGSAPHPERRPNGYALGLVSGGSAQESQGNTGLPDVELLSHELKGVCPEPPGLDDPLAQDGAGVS

[3] = molecular target: Acetylcholine receptor subunit alpha (Homo sapiens) (UniProt P02708); assay: Displacement of [125I]-alpha-Bungarotoxin from full length nAChR alpha1 receptor in human RD cell membranes assessed as residual binding level for radioligand at 10 uM measured after 120 mins by radiometric scintillation analysis relative to control
[4] = molecular target: Cysteinyl leukotriene receptor 1 (Homo sapiens) (UniProt Q9Y271); assay: Displacement of [3H]LTD4 from full length recombinant human CysLT1 Leukotriene receptor expressed in CHO-K1 cells assessed as residual binding level for radioligand at 10 uM incubated for 30 mins radiometric scintillation analysis relative to control; assay type: cell-based
[5] = molecular target: T1, Muscarinic acetylcholine receptor M4 (Homo sapiens) (UniProt P08173); assay: Positive allosteric modulation of human M4 receptor/Gqi5 in presence of EC20 acetylcholine by calcium mobilization assay relative to acetylcholine; assay type: functional; conditions: filed as positive allosteric modulator
T1 sequence (whole entry): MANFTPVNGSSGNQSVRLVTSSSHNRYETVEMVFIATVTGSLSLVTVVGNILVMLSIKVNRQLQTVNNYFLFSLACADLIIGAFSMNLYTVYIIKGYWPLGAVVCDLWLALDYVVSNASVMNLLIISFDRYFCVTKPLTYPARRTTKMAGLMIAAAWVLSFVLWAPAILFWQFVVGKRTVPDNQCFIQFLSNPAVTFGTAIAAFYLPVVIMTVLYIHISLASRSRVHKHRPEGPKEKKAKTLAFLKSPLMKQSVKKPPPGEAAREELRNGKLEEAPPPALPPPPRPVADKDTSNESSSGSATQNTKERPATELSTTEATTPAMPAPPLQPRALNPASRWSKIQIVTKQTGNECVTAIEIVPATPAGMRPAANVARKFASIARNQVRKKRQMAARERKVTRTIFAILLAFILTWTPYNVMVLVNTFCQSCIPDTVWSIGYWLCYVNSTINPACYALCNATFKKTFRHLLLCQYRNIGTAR

[6] = molecular target: D(2) dopamine receptor (Homo sapiens) (UniProt P14416); assay: Displacement of [3H]Spiperone from full length human dopamine D2S receptor expressed in CHO cells assessed as residual binding level for radioligand at 10 uM after 120 mins by radiometric scintillation analysis relative to control; assay type: cell-based
D(2) dopamine receptor (Homo sapiens), sequence (P14416 whole entry): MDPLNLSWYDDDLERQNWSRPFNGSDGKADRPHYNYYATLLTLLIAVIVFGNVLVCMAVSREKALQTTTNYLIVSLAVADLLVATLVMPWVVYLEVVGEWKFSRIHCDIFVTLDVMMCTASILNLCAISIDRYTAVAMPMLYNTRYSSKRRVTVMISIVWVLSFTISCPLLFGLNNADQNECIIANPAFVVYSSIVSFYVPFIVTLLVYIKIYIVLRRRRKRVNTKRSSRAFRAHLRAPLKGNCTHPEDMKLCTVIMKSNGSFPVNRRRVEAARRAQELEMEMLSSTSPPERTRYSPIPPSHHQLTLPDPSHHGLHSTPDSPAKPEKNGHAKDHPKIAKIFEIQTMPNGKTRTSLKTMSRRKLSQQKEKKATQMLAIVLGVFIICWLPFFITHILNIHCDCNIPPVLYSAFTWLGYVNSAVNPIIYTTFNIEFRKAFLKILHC

[7] = species on record: Mus musculus; assay: Displacement of [3H]-PDBu from phorbol ester receptor in ICR mouse brain assessed as residual binding level for radioligand at 10 uM incubated for 60 mins by scintillation counting analysis relative to control; assay type: tissue-based
[8] = species on record: Canis lupus familiaris; assay: Positive allosteric modulation of dog M4 receptor relative to acetylcholine
[9] = molecular target: Neuropeptide Y receptor type 1 (Homo sapiens) (UniProt P25929); assay: Displacement of [125I]peptide YY from human Y1 receptor in SK-N-MC cell membrane assessed as residual binding level for radioligand at 10 uM after 120 mins by scintillation counting analysis relative to control
Neuropeptide Y receptor type 1 (Homo sapiens), sequence (P25929 whole entry): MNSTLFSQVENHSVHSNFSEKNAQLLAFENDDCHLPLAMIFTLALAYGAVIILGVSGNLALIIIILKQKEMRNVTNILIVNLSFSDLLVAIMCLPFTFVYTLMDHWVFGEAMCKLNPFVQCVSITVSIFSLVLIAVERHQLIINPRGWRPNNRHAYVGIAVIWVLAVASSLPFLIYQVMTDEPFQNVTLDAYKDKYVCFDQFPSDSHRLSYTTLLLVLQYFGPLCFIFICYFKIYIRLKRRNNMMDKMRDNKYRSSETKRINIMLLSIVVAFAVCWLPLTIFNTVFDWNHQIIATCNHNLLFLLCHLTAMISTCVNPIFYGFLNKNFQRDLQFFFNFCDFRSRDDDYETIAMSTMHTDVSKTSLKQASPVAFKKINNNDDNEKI

[10] = Positive allosteric modulation of cynomolgus monkey M4 receptor; set-up: species or system Macaca fascicularis
[11] = molecular target: Muscarinic acetylcholine receptor M4 (Rattus norvegicus, UniProt P08485); assay: Positive allosteric modulation of rat M4 receptor
Muscarinic acetylcholine receptor M4, sequence (P08485 whole entry): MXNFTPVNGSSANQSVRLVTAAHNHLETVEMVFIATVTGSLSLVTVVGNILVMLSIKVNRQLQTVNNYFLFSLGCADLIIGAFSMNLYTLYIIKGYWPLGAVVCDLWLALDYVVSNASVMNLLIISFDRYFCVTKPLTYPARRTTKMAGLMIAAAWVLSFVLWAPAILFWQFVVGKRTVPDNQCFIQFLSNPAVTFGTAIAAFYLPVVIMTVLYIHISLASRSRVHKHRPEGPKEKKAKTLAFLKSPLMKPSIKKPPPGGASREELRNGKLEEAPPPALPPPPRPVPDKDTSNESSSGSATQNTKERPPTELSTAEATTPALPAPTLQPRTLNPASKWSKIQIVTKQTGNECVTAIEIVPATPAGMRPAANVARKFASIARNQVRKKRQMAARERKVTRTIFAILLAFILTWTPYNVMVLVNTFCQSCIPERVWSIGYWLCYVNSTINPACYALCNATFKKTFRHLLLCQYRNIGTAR

[12] = molecular target: Estrogen receptor (Homo sapiens) (UniProt P03372); assay: Displacement of [3H]estradiol from recombinant full length human recombinant ERalpha receptor expressed in Sf9 insect cells assessed as residual binding level for radioligand at 10 uM measured after 120 mins by radiometric scintillation analysis relative to contro
[13] = molecular target: Neuronal acetylcholine receptor; alpha3/beta4 (Homo sapiens) (UniProt P30926+P32297); assay: Displacement of [125I] epibatidine from human nicotinic acetylcholine receptor alpha3/beta4 assessed as residual binding level for radioligand at 10 uM incubated for 60 mins by scintillation counting analysis relative to control; assay type: protein-complex assay
[14] = molecular target: Muscarinic acetylcholine receptor M3 (Rattus norvegicus, UniProt P08483); assay: Positive allosteric modulation of rat M3 receptor
Muscarinic acetylcholine receptor M3, sequence (P08483 whole entry): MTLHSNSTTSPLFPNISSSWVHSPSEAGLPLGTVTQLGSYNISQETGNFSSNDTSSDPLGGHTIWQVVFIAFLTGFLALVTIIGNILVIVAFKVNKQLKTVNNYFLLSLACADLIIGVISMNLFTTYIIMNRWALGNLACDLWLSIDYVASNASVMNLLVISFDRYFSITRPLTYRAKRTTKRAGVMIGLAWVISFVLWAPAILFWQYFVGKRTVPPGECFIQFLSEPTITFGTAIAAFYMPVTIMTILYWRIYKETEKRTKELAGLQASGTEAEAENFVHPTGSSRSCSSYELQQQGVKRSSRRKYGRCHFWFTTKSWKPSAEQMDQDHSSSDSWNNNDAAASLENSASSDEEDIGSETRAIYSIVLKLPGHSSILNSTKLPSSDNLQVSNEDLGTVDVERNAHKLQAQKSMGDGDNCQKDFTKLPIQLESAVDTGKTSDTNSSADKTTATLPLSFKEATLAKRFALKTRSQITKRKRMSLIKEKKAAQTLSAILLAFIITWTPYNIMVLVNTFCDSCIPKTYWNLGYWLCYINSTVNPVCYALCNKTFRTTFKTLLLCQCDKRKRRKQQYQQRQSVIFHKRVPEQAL

[15] = molecular target: Muscarinic acetylcholine receptor M5 (Rattus norvegicus, UniProt P08911); assay: Positive allosteric modulation of rat M5 receptor
Muscarinic acetylcholine receptor M5, sequence (P08911 whole entry): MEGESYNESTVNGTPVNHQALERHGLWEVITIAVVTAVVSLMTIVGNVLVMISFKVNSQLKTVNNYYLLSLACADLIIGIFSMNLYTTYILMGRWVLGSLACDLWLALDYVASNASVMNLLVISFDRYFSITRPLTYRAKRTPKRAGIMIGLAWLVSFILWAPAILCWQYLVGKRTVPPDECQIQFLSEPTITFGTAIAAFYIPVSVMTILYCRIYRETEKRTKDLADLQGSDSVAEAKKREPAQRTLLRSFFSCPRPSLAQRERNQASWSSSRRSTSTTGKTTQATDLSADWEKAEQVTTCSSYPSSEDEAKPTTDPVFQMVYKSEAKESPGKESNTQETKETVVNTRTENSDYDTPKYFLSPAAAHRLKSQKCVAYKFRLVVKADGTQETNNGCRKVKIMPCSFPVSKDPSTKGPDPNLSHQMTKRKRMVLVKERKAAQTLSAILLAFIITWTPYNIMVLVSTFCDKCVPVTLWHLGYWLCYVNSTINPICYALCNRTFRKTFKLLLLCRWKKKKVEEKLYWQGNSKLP

[16] = tested on: Rattus norvegicus; assay: Reversal of amphetamine-induced hyperlocomotion in rat at 0.56 mg/kg, po relative to control; assay type: functional
[17] = tested on: HIT-T15; assay: Displacement of [3H]glyburide from KATP receptor in HIT-T15 Syrian hamster pancreatic B cell membranes assessed as residual binding level for radioligand at 10 uM after 120 mins by radiometric scintillation analysis relative to control; assay type: tissue-based; conditions: Mesocricetus auratus
[18] = molecular target: Cannabinoid receptor 1 (Homo sapiens) (UniProt P21554); assay: Displacement of [3H]-SR141716A from human recombinant full length Cannabinoid CB1 receptor expressed in Chem-1 cells assessed as residual binding level for radioligand at 10 uM incubated for 60 mins by radiometric scintillation analysis relative to control; assay type: cell-based
[19] = molecular target: 5-hydroxytryptamine receptor 3A (Homo sapiens) (UniProt P46098); assay: Displacement of [3H]GR-65630 from full length human recombinant 5HT3 receptor expressed in HEK293 cells assessed as residual binding level for radioligand at 10 uM measured after 60 mins by radiometric scintillation analysis relative to control; assay type: cell-based
5-hydroxytryptamine receptor 3A (Homo sapiens), sequence (P46098 whole entry): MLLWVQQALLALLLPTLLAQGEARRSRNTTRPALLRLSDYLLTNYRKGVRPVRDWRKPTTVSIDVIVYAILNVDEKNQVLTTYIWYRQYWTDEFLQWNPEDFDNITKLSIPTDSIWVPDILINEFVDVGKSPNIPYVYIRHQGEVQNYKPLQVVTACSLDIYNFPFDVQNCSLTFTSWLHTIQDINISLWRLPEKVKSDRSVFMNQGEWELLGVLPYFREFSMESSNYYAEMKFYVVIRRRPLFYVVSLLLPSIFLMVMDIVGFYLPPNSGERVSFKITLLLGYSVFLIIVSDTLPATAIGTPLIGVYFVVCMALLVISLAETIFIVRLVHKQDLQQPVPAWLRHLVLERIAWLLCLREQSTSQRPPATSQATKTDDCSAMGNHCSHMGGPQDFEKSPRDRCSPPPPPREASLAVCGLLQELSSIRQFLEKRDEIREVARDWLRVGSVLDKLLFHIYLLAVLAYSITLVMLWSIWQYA

[20] = molecular target: Substance-P receptor (Homo sapiens) (UniProt P25103); assay: Displacement of [3H]substance P from recombinant full length human NK1R expressed in CHO cells assessed as residual binding level for radioligand at 10 uM after 90 mins by radiometric scintillation analysis relative to control; assay type: cell-based
Substance-P receptor (Homo sapiens), sequence (P25103 whole entry): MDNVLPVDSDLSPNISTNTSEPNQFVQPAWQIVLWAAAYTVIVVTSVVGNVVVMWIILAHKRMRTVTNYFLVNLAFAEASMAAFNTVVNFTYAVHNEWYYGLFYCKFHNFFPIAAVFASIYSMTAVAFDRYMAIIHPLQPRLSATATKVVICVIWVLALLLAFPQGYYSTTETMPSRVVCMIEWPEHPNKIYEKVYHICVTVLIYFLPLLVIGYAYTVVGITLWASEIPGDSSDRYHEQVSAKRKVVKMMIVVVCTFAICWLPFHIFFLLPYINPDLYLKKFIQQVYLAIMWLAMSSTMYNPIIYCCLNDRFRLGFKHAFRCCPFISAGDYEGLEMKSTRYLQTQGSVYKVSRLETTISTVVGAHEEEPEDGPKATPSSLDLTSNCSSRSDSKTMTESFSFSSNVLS

[21] = Volume of distribution at steady state in rat; assay type: ADME; conditions: in vivo, read-out: Vdss
[22] = species on record: Macaca fascicularis; assay: Positive allosteric modulation of cynomolgus monkey M4 receptor relative to acetylcholine; conditions: filed as positive allosteric modulator
[23] = Fraction unbound in human plasma; assay type: ADME, cell-free
[24] = species on record: Rattus norvegicus; assay: Displacement of [3H]-Batrachotoxinin from Wistar rat sodium channel site 2 assessed as residual binding level for radioligand at 10 uM incubated for 60 mins by scintillation counting analysis relative to control; assay type: tissue-based; conditions: Brain
[25] = Oral bioavailability in rat at 3 mg/kg administered as suspension; assay type: ADME, organism-based; conditions: in vivo
[26] = molecular target: D(4) dopamine receptor (Homo sapiens) (UniProt P21917); assay: Displacement of [3H]spiperone from full length recombinant human D4.4 receptor expressed in CHO cells assessed as residual binding level for radioligand at 10 uM incubated for 120 mins by radiometric scintillation analysis relative to control; assay type: cell-based
[27] = Hepatic clearance in human; assay type: ADME
[28] = molecular target: D(3) dopamine receptor (Homo sapiens) (UniProt P35462); assay: Displacement of [3H]spiperone from full length human dopamine D3 receptor expressed in CHO cells assessed as residual binding level for radioligand at 10 uM incubated for 60 mins by radiometric scintillation analysis relative to control; assay type: cell-based
D(3) dopamine receptor (Homo sapiens), sequence (P35462 whole entry): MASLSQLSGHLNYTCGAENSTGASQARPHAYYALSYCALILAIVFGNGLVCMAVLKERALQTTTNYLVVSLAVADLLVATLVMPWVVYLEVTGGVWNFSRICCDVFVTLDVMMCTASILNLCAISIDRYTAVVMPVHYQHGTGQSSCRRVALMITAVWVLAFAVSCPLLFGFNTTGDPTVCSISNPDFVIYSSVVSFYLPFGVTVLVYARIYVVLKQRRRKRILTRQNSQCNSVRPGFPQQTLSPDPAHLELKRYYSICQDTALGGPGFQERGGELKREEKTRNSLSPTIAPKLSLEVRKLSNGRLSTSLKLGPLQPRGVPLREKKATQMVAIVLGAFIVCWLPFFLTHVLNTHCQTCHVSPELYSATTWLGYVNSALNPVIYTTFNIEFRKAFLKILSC

[29] = molecular target: Cytochrome P450 1A2 (Homo sapiens, UniProt P05177); assay: Inhibition of CYP1A2 (unknown origin); assay type: ADME
Cytochrome P450 1A2, sequence (P05177 whole entry): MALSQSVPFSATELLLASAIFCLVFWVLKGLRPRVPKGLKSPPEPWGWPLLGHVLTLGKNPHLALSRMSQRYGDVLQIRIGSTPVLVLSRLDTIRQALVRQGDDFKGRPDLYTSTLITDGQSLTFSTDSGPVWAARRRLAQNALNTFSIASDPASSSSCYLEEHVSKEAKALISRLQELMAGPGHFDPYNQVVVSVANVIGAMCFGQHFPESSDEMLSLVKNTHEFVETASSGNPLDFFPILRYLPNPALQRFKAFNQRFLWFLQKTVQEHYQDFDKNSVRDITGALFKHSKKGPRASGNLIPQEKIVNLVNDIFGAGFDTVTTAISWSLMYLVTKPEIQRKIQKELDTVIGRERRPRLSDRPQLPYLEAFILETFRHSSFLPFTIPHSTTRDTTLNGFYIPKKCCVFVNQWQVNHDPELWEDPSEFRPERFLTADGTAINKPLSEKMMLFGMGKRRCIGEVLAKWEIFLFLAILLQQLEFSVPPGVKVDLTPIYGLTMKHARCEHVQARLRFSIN

In the case of `COc1nnc2sc(C(=O)NC3CN(c4ncc(C(F)(F)F)cn4)C3)c(N)c2c1C`, the Kp uu at 0.25 h [1] was 0.73, the Activity [2] was over 50% and the Activity [3] was over 50%. The Activity [4] was over 50%, the %max [5] was 71% and the Activity [6] was over 50%. It also gave an Activity [7] of over 50%, a %max [8] of 37% and an Activity [9] of over 50%. The pEC50 [10] was 7.17, the pEC50 [11] was 7.55 and the Activity [12] was over 50%. The Activity [13] was over 50%, the pEC50 [14] was under 4.52 and the pEC50 [15] was under 4.52. It also gave an Activity [16] of 44%, an Activity [17] of over 50% and an Activity [18] of over 50%. The Activity [19] was over 50%, the Activity [20] was over 50% and the Vd [21] was 1.81 L/kg. The %max [22] was 57%, the fraction unbound [23] was 0.02 and the Activity [24] was over 50%. It also gave a bioavailability [25] of 57%, an Activity [26] of over 50% and a CLH [27] of 2.52 mL/min/kg. For the same compound, the Activity [28] was over 50% and the pIC50 [29] was under 4.52.
